In the supplement of paper PMC10307832:

Assays:
Assay in all cases: relative viability (nuclei count vs DMSO), 5 days (fraction); higher = more cells survive
[1] = system: LCLC-97TM1
In short: (§1)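 Lung cancer cell lines, seeded in 1536-well plates, were treated the following day by pin tool with a single drug or with five library-drug doses (not always all listed) in √10 steps on top of a fixed anchor-drug dose. Cells were fixed and nuclei stained in one step after 5 days, and nuclei were counted. Relative viability is the nuclei count for treated wells divided by that for vehicle wells, reported as medians of duplicate plates.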

[2] = system: NCI-H1944
In short: as §1

[3] = system: HCC-78
In short: as §1

[4] = system: EPLC-272H
In short: as §1

[5] = system: NCI-H1915
In short: as §1

[6] = system: UMC-11
In short: as §1

[7] = system: LC-2-ad
In short: as §1

[8] = system: NCI-H2085
In short: as §1

[9] = system: NCI-H1792
In short: as §1

[10] = system: NCI-H1755
In short: as §1

[11] = system: COR-L 105
In short: as §1

[12] = system: SW 900
In short: as §1

[13] = system: NCI-H1793
In short: as §1

[14] = system: SK-LU-1
In short: as §1

[15] = system: NCI-H460
In short: as §1

[16] = system: HCC-366
In short: as §1

[17] = system: LU99A
In short: as §1

[18] = system: NCI-H358
In short: as §1

[19] = system: NCI-H2170
In short: as §1

[20] = system: A-427
In short: as §1

[21] = system: LXF-289
In short: as §1

[22] = system: NCI-H1975
In short: as §1

[23] = system: HOP-62
In short: as §1

Structure (SMILES): NC(=O)Nc1cc(-c2cccc(F)c2)sc1C(=O)N[C@H]1CCCNC1 [AZD7762] + N=C(N)NC(=N)NCCc1ccccc1 [Phenformin] (partner 250 µM)
- relative viability ([1]; first compound 0.01 µM): 0.429
- relative viability ([1]; first compound 0.03162 µM): 0.434
- relative viability ([1]; first compound 0.1 µM): 0.479
- relative viability ([1]; first compound 0.3162 µM): 0.406
- relative viability ([1]; first compound 1 µM): 0.433
- relative viability ([2]; first compound 0.01 µM): 0.196
- relative viability ([2]; first compound 0.03162 µM): 0.23
- relative viability ([2]; first compound 0.1 µM): 0.231
- relative viability ([2]; first compound 0.3162 µM): 0.273
- relative viability ([2]; first compound 1 µM): 0.21
- relative viability ([3]; first compound 0.01 µM): 0.737
- relative viability ([3]; first compound 0.03162 µM): 1.12
- relative viability ([3]; first compound 0.1 µM): 0.766
- relative viability ([3]; first compound 0.3162 µM): 0.718
- relative viability ([3]; first compound 1 µM): 0.604
- relative viability ([4]; first compound 0.01 µM): 0.325
- relative viability ([4]; first compound 0.03162 µM): 0.359
- relative viability ([4]; first compound 0.1 µM): 0.278
- relative viability ([4]; first compound 0.3162 µM): 0.261
- relative viability ([4]; first compound 1 µM): 0.164
- relative viability ([5]; first compound 0.01 µM): 0.373
- relative viability ([5]; first compound 0.03162 µM): 0.375
- relative viability ([5]; first compound 0.1 µM): 0.368
- relative viability ([5]; first compound 0.3162 µM): 0.362
- relative viability ([5]; first compound 1 µM): 0.349
- relative viability ([6]; first compound 0.01 µM): 0.372
- relative viability ([6]; first compound 0.03162 µM): 0.322
- relative viability ([6]; first compound 0.1 µM): 0.238
- relative viability ([6]; first compound 0.3162 µM): 0.25
- relative viability ([6]; first compound 1 µM): 0.234
- relative viability ([7]; first compound 0.01 µM): 0.645
- relative viability ([7]; first compound 0.03162 µM): 0.595
- relative viability ([7]; first compound 0.1 µM): 0.555
- relative viability ([7]; first compound 0.3162 µM): 0.592
- relative viability ([7]; first compound 1 µM): 0.342
- relative viability ([8]; first compound 0.01 µM): 0.647
- relative viability ([8]; first compound 0.03162 µM): 0.806
- relative viability ([8]; first compound 0.1 µM): 0.811
- relative viability ([8]; first compound 0.3162 µM): 0.685
- relative viability ([8]; first compound 1 µM): 0.496
- relative viability ([9]; first compound 0.01 µM): 0.412
- relative viability ([9]; first compound 0.03162 µM): 0.26
- relative viability ([9]; first compound 0.1 µM): 0.442
- relative viability ([9]; first compound 0.3162 µM): 0.736
- relative viability ([9]; first compound 1 µM): 0.258
- relative viability ([10]; first compound 0.01 µM): 0.636
- relative viability ([10]; first compound 0.03162 µM): 0.704
- relative viability ([10]; first compound 0.1 µM): 0.656
- relative viability ([10]; first compound 0.3162 µM): 0.596
- relative viability ([10]; first compound 1 µM): 0.423
- relative viability ([11]; first compound 0.01 µM): 0.5
- relative viability ([11]; first compound 0.03162 µM): 0.491
- relative viability ([11]; first compound 0.1 µM): 0.477
- relative viability ([11]; first compound 0.3162 µM): 0.429
- relative viability ([11]; first compound 1 µM): 0.254
- relative viability ([12]; first compound 0.01 µM): 0.777
- relative viability ([12]; first compound 0.03162 µM): 0.746
- relative viability ([12]; first compound 0.1 µM): 0.65
- relative viability ([12]; first compound 0.3162 µM): 0.579
- relative viability ([12]; first compound 1 µM): 0.29
- relative viability ([13]; first compound 0.01 µM): 0.428
- relative viability ([13]; first compound 0.03162 µM): 0.416
- relative viability ([13]; first compound 0.1 µM): 0.278
- relative viability ([13]; first compound 0.3162 µM): 0.351
- relative viability ([13]; first compound 1 µM): 0.279
- relative viability ([14]; first compound 0.01 µM): 0.563
- relative viability ([14]; first compound 0.03162 µM): 0.494
- relative viability ([14]; first compound 0.1 µM): 0.17
- relative viability ([14]; first compound 0.3162 µM): 0.139
- relative viability ([14]; first compound 1 µM): 0.131
- relative viability ([15]; first compound 0.01 µM): 0.542
- relative viability ([15]; first compound 0.03162 µM): 0.468
- relative viability ([15]; first compound 0.1 µM): 0.467
- relative viability ([15]; first compound 0.3162 µM): 0.253
- relative viability ([15]; first compound 1 µM): 0.0452
- relative viability ([16]; first compound 0.01 µM): 0.601
- relative viability ([16]; first compound 0.03162 µM): 0.615
- relative viability ([16]; first compound 0.1 µM): 0.627
- relative viability ([16]; first compound 0.3162 µM): 0.485
- relative viability ([16]; first compound 1 µM): 0.312
- relative viability ([17]; first compound 0.01 µM): 0.777
- relative viability ([17]; first compound 0.03162 µM): 0.934
- relative viability ([17]; first compound 0.1 µM): 0.868
- relative viability ([17]; first compound 0.3162 µM): 0.795
- relative viability ([17]; first compound 1 µM): 0.512
- relative viability ([18]; first compound 0.01 µM): 0.305
- relative viability ([18]; first compound 0.03162 µM): 0.401
- relative viability ([18]; first compound 0.1 µM): 0.334
- relative viability ([18]; first compound 0.3162 µM): 0.242
- relative viability ([18]; first compound 1 µM): 0.185
- relative viability ([19]; first compound 0.01 µM): 0.411
- relative viability ([19]; first compound 0.03162 µM): 0.41
- relative viability ([19]; first compound 0.1 µM): 0.471
- relative viability ([19]; first compound 0.3162 µM): 0.384
- relative viability ([19]; first compound 1 µM): 0.423
- relative viability ([20]; first compound 0.01 µM): 0.255
- relative viability ([20]; first compound 0.03162 µM): 0.346
- relative viability ([20]; first compound 0.1 µM): 0.292
- relative viability ([20]; first compound 0.3162 µM): 0.304
- relative viability ([20]; first compound 1 µM): 0.197
- relative viability ([21]; first compound 0.01 µM): 0.49
- relative viability ([21]; first compound 0.03162 µM): 0.54
- relative viability ([21]; first compound 0.1 µM): 0.508
- relative viability ([21]; first compound 0.3162 µM): 0.445
- relative viability ([21]; first compound 1 µM): 0.526
- relative viability ([22]; first compound 0.01 µM): 0.425
- relative viability ([22]; first compound 0.03162 µM): 0.411
- relative viability ([22]; first compound 0.1 µM): 0.417
- relative viability ([22]; first compound 0.3162 µM): 0.386
- relative viability ([22]; first compound 1 µM): 0.328
- relative viability ([23]; first compound 0.01 µM): 0.748
- relative viability ([23]; first compound 0.03162 µM): 0.665
- relative viability ([23]; first compound 0.1 µM): 0.791
- relative viability ([23]; first compound 0.3162 µM): 0.616
- relative viability ([23]; first compound 1 µM): 0.583
